{"source": "patent US20160257928A1", "about": "“Method for producing pluripotent stem cell having improved chimera forming ability from primed pluripotent stem cell, and composition and combination therefor” (The University of Tokyo, priority 2015, published 2016)", "key": {"EB3DR-EpiSC [1]": {"system": "EB3DR-EpiSC", "test": "Naive pluripotent stem cell-like colony formation of EpiSC", "format": "cell-based, mouse", "protocol": "The EB3DR-EpiSC was cultured in N2B27 medium (Ying et al., Nature (2008), 435, 519-523) supplemented with 1,000 U/mL of mouse LIF and 1 μM of PD0325901 (manufactured by Axon, Groeningen, The Netherlands). To the resultant, 5 nM of IWP-2 (manufactured by Wako Pure Chemical Industries, Ltd., Osaka, Japan) was added, or CHIR known as an inhibitor of GSK3β or the same amount of DMSO was added instead of IWP-2, so as to check the influence on the EB3DR-EpiSC.\n(§1) The naive-like colony formation and the chimera formation were checked in the same manner as described above except that XAV939 (manufactured by Sigma-Aldrich, S. Louis, Mo., USA) was used as the Wnt/β catenin signal inhibitor instead of IWP-2."}, "Wnt/β catenin signal": {"system": "Wnt/β catenin signal", "test": "Western blotting of β catenin in cytoplasmic and nuclear fractions", "format": "cell-based, mouse", "details": "EB3DR-EpiSC; for inhibition of Wnt/β catenin signal: Western blotting (FIG. 4 (A))", "protocol": "First, in order to confirm the effect of IWP-2 on a Wnt/β catenin signal inhibition, the amount of protein in β catenin was checked by Western blotting. The EB3DR-EpiSC was cultured under the aforementioned culturing conditions, IWP-2 (at a final concentration of 5 nM) was added thereto, and the resultant was cultured for another 2 days. As a control, the same amount of DMSO was added instead of IWP-2. Next, Nuclear/Cytosol Fractionation Kit (Bio Vision, manufactured by Mountain View, Calif.) was used in accordance with the manufacturer's manual to separate a cytoplasmic fraction and a nuclear fraction. Each of these fractions thus obtained was dissolved in Laemmli Sample Buffer (Bio-Rad, manufactured by Hercules, Calif.) to perform SDS-PAGE. A protein separated by the SDS-PAGE was blotted on a PVDF transfer membrane (manufactured by Millipore Corporation) to perform a primary antibody reaction.\nAs a primary antibody, an anti-β catenin antibody (#9562, 1:1000), an anti-(β-actin antibody (#3770, 1:1000), or an anti-histone H3 antibody (#4499, 1:2000) purchased from Cell Signaling Technology Inc. was used. As a secondary antibody, for the anti-β catenin antibody or the anti-histone H3 antibody, an anti-rabbit IgG Horseradish peroxidase-conjugated antibody (NA934V, 1:100, manufactured by GE Healthcare UK, Little Chalfont, UK) was used for the reaction, and for the anti-β-actin antibody, an anti-mouse IgG Horseradish peroxidase-conjugated antibody (NA931V, 1:1000, manufactured by GE Healthcare UK, Little Chalfont, UK) was used for the reaction, and then a band bonded to the secondary antibody was detected by SuperSignal West Pico Chemiluminescent Substrate (manufactured by Thermo Fisher Scientific Inc., Rockford, Ill.). As a result, it was confirmed that the amount of β catenin was reduced in the nuclear fraction by IWP-2 and that a Wnt/β catenin signal was thus inhibited (see FIG. 4, (A))."}, "EB3DR-EpiSC [2]": {"system": "EB3DR-EpiSC", "test": "CD31 (PECAM-1) expression by FACS", "format": "cell-based, mouse", "details": "for expression of CD31 (CD31 positive cell frequency): in the presence of LIF", "protocol": "Next, the expression of CD31 (PECAM-1) in these cells was analyzed. The expression level of CD31 was checked by the FACS by using an APC labeled rat anti-mouse CD31 antibody (manufactured by eBioscience, 17-0311). […] When a colony of the CD31 expressing cell was cloned and subcultured, a mouse ES cell-like morphology was obtained (see FIG. 4, (G)), and such a cell could be subcultured continuously for a long period of time similarly to a mouse ES cell. Since the cell was derived from the EB3DR-EpiSC, DsRed was expressed therein (see FIG. 4, (H)).\nas §1"}, "STAT3 signal": {"system": "STAT3 signal", "test": "Western blotting of phosphorylated STAT3", "format": "cell-based, mouse", "details": "EB3DR-EpiSC, 2nd day after stimulation", "description": "Besides, the EB3DR-EpiSC was stimulated with LIF, the resultant cell was collected on the 2nd day after stimulation, and the activation of a STAT3 signal was checked by the Western blotting. The activation of a STAT3 signal was checked on the basis of the presence of phosphorylated STAT3. The phosphorylated STAT3 was detected by using, as a primary antibody, an anti-P-STAT3 antibody (#9145, 1:2000, manufactured by Cell Signaling Technology Inc.) […] specifically recognizing phosphorylated STAT3."}, "EB3DR-EpiSC [3]": {"system": "EB3DR-EpiSC", "test": "Chimera forming ability after injection into mouse blastocyst", "format": "in vivo", "details": "EpiSC treated with LIF and the inhibitor, about 10 cells injected per embryo", "protocol": "Furthermore, the chimera forming ability of the EB3DR-EpiSC treated with LIF and IWP-2 was checked. Specifically, the embryo of a BDF1 (C57BL6/N; DBA1 F1) mouse was cultured in Medium 2 (manufactured by Millipore Corporation) to the eight-cell stage or morula stage. The resultant embryo was transferred to KSOM medium (manufactured by Millipore Corporation) and cultured for 24 hours to be developed to the blastocyst stage. For the injection into an embryo, the cell was dissociated into a single cell by a trypsin treatment, and the resultant was suspended in a medium. A zona pellucida was perforated under a microscope by using a piezoelectric micromanipulator, and a chimeric embryo was produced by injecting approximately 10 cells into a space below the zona pellucida in each embryo. After the injection, the embryo was cultured in KSOM medium until a blastomere was obtained, and then, the resultant was transplanted into the uterus of a pseudopregnant ICR recipient female mouse. The chimera formation was checked on the basis of the color of a fur. A cell derived from BDF1×C57BL/6 grows a black fur, and a cell derived from 129/Ola grows a brown (agouti-colored) fur. […]"}, "EB3DR-EpiSC-TRE-Cdh1": {"system": "EB3DR-EpiSC-TRE-Cdh1", "test": "CD31 expression by FACS in E-cadherin induced EpiSC", "format": "cell-based, mouse", "details": "7 days, with forced expression of E-cadherin (Dox(+), 10 μg/mL doxycycline)", "protocol": "The EB3DR-EpiSC-TRE-Cdh1 was cultured for 7 days in the presence of a basic fibroblast growth factor (bFGF) or LIF in a usual medium (Dox(−)) or a medium supplemented with 10 μg/mL of doxycycline (Dox(+)), and the resultant cell was dissociated with a trypsin/EDTA solution and stained with an APC labeled anti-mouse CD31 antibody to be analyzed by using the FACS."}}, "data": [{"compound": "Cc1ccc2nc(NC(=O)CSc3nc4c(c(=O)n3-c3ccccc3)SCC4)sc2c1", "note": "[IWP-2, N-(6-methyl-2-benzothiazolyl)-2-[(3,4,6,7-tetrahydro-4-oxo-3-phenylthieno[3,2-d]pyrimidine-2-yl)thio]-acetamide]", "values": [{"measurement": "appearance of a colony corresponding to a naive pluripotent stem cell-like morphology, time after culture", "setting": "EB3DR-EpiSC [1]; N2B27 medium with 1,000 U/mL mouse LIF and 1 μM PD0325901, 5 nM IWP-2", "value": "≤ 7", "unit": "days"}, {"measurement": "appearance frequency of a colony characteristic to the naive pluripotent stem cell on the 14th day after culture", "setting": "EB3DR-EpiSC [1]; N2B27 medium with LIF and PD0325901, 5 nM IWP-2, vs CHIR or DMSO", "value": "significantly increased"}, {"measurement": "inhibition of Wnt/β catenin signal", "setting": "Wnt/β catenin signal", "value": "inhibited"}, {"measurement": "amount of β catenin in the nuclear fraction", "setting": "Wnt/β catenin signal; final concentration 5 nM, 2 days, vs DMSO", "value": "reduced"}, {"measurement": "expression of CD31 (CD31 positive cell frequency)", "setting": "EB3DR-EpiSC [2]", "value": "expressed at a high frequency in a short period of time"}, {"measurement": "activation of a STAT3 signal (presence of phosphorylated STAT3)", "setting": "STAT3 signal", "value": "also observed"}, {"measurement": "chimera formation (production of a chimeric animal)", "setting": "EB3DR-EpiSC [3]", "value": "confirmed, based on the fur color, as a chimeric mouse"}]}, {"compound": "O=c1[nH]c(-c2ccc(C(F)(F)F)cc2)nc2c1CSCC2", "note": "[XAV939, 3,5,7,8-tetrahydro-2-[4-(trifluoromethyl)phenyl]-4H-thiopyrano[4,3-d]pyrimidine-4-one]", "values": [{"measurement": "naive-like colony formation on the 7th day after treatment", "setting": "EB3DR-EpiSC [1]; LIF used in combination", "value": "formed a naive-like colony"}, {"measurement": "inhibition of Wnt/β catenin signal", "setting": "Wnt/β catenin signal", "value": "work as an inhibitor of a Wnt/β catenin signal"}, {"measurement": "proportion of the CD31 (PECAM-1) positive cell on the 7th day after treatment", "setting": "EB3DR-EpiSC [2]; LIF used in combination", "value": "remarkably increased"}, {"measurement": "expression of CD31 (CD31 positive cell frequency)", "setting": "EB3DR-EpiSC [2]", "value": "observed at a high frequency"}, {"measurement": "activation of a STAT3 signal (presence of phosphorylated STAT3)", "setting": "STAT3 signal", "value": "also observed"}, {"measurement": "chimera formation (production of a chimeric animal)", "setting": "EB3DR-EpiSC [3]", "value": "a chimeric animal was produced"}]}, {"compound": "bFGF: basic fibroblast growth factor, culture medium supplement", "values": [{"measurement": "CD31 (Pecam1) positive cell proportion", "setting": "EB3DR-EpiSC-TRE-Cdh1", "value": "the level was merely restrictive"}]}]}
